Measured values reported in ChEMBL document CHEMBL1201862, “PubChem BioAssay data set” (2004).
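Interpolation was linear, between the two tested concentrations surrounding the appropriate level; five concentrations were tested over 48 hours in 96-well plates. The concentration for 50% growth inhibition is given as GI50.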 The source made the active and inactive calls. Rule as the data show it: active = GI50 up to about 1.1 µM and inactive = higher.

What was measured:
Test in all cases: inhibition of tumour cell growth, NCI panel, 48 h
[1] = tested on: HCT-116
[2] = tested on: HCT-15
[3] = tested on: HT-29
[4] = tested on: IGROV-1
[5] = tested on: K562
[6] = tested on: MDA-MB-231
[7] = tested on: MDA-MB-435
[8] = tested on: MOLT-4
[9] = tested on: Malme-3M
[10] = tested on: NCI-H23
[11] = tested on: NCI-H522
[12] = tested on: OVCAR-8
[13] = tested on: PC-3
[14] = tested on: RPMI-8226
[15] = tested on: SK-MEL-28
[16] = tested on: SK-MEL-2
[17] = tested on: SK-MEL-5
[18] = tested on: SNB-19
[19] = tested on: U-251
[20] = tested on: SF-295

SMILES	GI50 [1]	GI50 [2]	GI50 [3]	GI50 [4]	GI50 [5]	GI50 [6]	GI50 [7]	GI50 [8]	GI50 [9]	GI50 [10]	GI50 [11]	GI50 [12]	GI50 [13]	GI50 [14]	GI50 [15]	GI50 [16]	GI50 [17]	GI50 [18]	GI50 [19]	GI50 [20]
O=[N+]([O-])C1(C2([N+](=O)[O-])CCCC2)CCCC1	> 100 µM (inactive)	> 100 µM	> 100 µM (inactive)	> 100 µM (inactive)	> 100 µM (inactive)	> 100 µM (inactive)	> 100 µM (inactive)	> 100 µM (inactive)	> 100 µM (inactive)	> 100 µM (inactive)	50.7 µM (inactive)	> 100 µM (inactive)	> 100 µM (inactive)	> 100 µM (inactive)	> 100 µM (inactive)	> 100 µM (inactive)	> 100 µM (inactive)	> 100 µM (inactive)	> 100 µM (inactive)	–
CCCC(=O)Nc1cc(/C=C/C(=O)N2CC(CCl)c3c2cc([N+](=O)[O-])c2ccccc32)n(C)c1 (stereo not drawn)	11.9 µM (inactive)	> 4.65 µM	> 100 µM (inactive)	> 100 µM (inactive)	0.738 µM (active)	> 100 µM (inactive)	> 100 µM (inactive)	3.01 µM (inactive)	–	1 µM (active)	> 100 µM (inactive)	16.5 µM (inactive)	3.73 µM (inactive)	0.579 µM (active)	> 100 µM (inactive)	> 100 µM (inactive)	> 47.3 µM (inactive)	> 100 µM (inactive)	> 63.5 µM (inactive)	> 52.1 µM (inactive)
COc1cccc(C=C2N=C(c3ccccc3)N(n3c(-c4ccccc4)nc4ccccc4c3=O)C2=O)c1	46 µM (inactive)	54.3 µM	40.9 µM (inactive)	30.1 µM (inactive)	68.9 µM (inactive)	57.9 µM (inactive)	> 100 µM (inactive)	30.3 µM (inactive)	> 100 µM (inactive)	71.9 µM (inactive)	18.3 µM (inactive)	44.5 µM (inactive)	41.2 µM (inactive)	40.2 µM (inactive)	63.2 µM (inactive)	–	34.8 µM (inactive)	64.6 µM (inactive)	–	57.4 µM (inactive)
O=C(Nc1ccc2nc(O)n[n+]([O-])c2c1)C(F)(F)F	> 100 µM (inactive)	> 100 µM	> 100 µM (inactive)	> 100 µM (inactive)	> 100 µM (inactive)	> 100 µM (inactive)	> 100 µM (inactive)	> 100 µM (inactive)	–	> 100 µM (inactive)	> 100 µM (inactive)	> 100 µM (inactive)	> 100 µM (inactive)	> 100 µM (inactive)	> 100 µM (inactive)	> 100 µM (inactive)	> 100 µM (inactive)	> 100 µM (inactive)	> 100 µM (inactive)	> 100 µM (inactive)
CSc1ncc2c(n1)-c1ccccc1OC2NC1CC1 (stereo not drawn)	64.1 µM (inactive)	40.4 µM	> 100 µM (inactive)	49 µM (inactive)	54 µM (inactive)	> 100 µM (inactive)	> 100 µM (inactive)	37.2 µM (inactive)	–	73.6 µM (inactive)	24.8 µM (inactive)	71.4 µM (inactive)	50.7 µM (inactive)	31.3 µM (inactive)	–	> 100 µM (inactive)	78.3 µM (inactive)	> 100 µM (inactive)	76.2 µM (inactive)	> 100 µM (inactive)
CCCCCCc1nn2c(-c3ccc(C)cc3)nnc2s1	49.2 µM (inactive)	> 100 µM	> 100 µM (inactive)	–	> 100 µM (inactive)	> 100 µM (inactive)	> 100 µM (inactive)	46.2 µM (inactive)	–	> 100 µM (inactive)	67.3 µM (inactive)	68.9 µM (inactive)	56.1 µM (inactive)	> 100 µM (inactive)	> 100 µM (inactive)	> 100 µM (inactive)	77.1 µM (inactive)	> 100 µM (inactive)	32.6 µM (inactive)	> 100 µM (inactive)
O=C1[C@@H]2[C@@H](c3ccccc3)[C@]2(Cl)C(=O)[C@H]2[C@H](c3ccccc3)[C@@]12Cl	> 100 µM (inactive)	> 100 µM	> 100 µM (inactive)	> 100 µM (inactive)	> 100 µM (inactive)	> 100 µM (inactive)	> 100 µM (inactive)	> 100 µM (inactive)	> 100 µM (inactive)	> 100 µM (inactive)	> 100 µM (inactive)	> 100 µM (inactive)	> 100 µM (inactive)	–	> 100 µM (inactive)	> 100 µM (inactive)	> 100 µM (inactive)	> 100 µM (inactive)	> 100 µM (inactive)	> 100 µM (inactive)
Cc1ncc([N+](=O)[O-])n1CCNC(=O)CCCCn1ccnc1[N+](=O)[O-]	> 100 µM (inactive)	> 100 µM	> 100 µM (inactive)	> 100 µM (inactive)	> 100 µM (inactive)	> 100 µM (inactive)	> 100 µM (inactive)	> 100 µM (inactive)	> 100 µM (inactive)	> 100 µM (inactive)	> 100 µM (inactive)	> 100 µM (inactive)	> 100 µM (inactive)	–	–	> 100 µM (inactive)	> 100 µM (inactive)	> 100 µM (inactive)	> 100 µM (inactive)	> 100 µM (inactive)
